In ChEMBL document CHEMBL1671662, “In vitro activities of telavancin and six comparator agents against anaerobic bacterial isolates” (2009):
In brackets after ≈: the same amount, converted by molar mass.

What was measured:
[1] = tested on: Bifidobacterium breve; experiment: Antibacterial activity against Bifidobacterium breve by CLSI M11-A6 agar dilution method; format: functional
[2] = tested on: Propionibacterium propionicum; experiment: Antibacterial activity against Propionibacterium propionicus by CLSI M11-A6 agar dilution method; format: functional; conditions: Arachnia propionica
[3] = tested on: Clostridium tertium; experiment: Antibacterial activity against Clostridium tertium by CLSI M11-A6 agar dilution method; format: functional
[4] = tested on: Bacteroides fragilis; experiment: Antibacterial activity against Bacteroides fragilis by CLSI M11-A6 agar dilution method; format: functional
[5] = tested on: Clostridium celerecrescens; experiment: Antibacterial activity against Clostridium celerecrescens by CLSI M11-A6 agar dilution method; format: functional; conditions: Lacrimispora celerecrescens
[6] = tested on: Streptococcus intermedius; experiment: Antibacterial activity against Streptococcus intermedius by CLSI M11-A6 agar dilution method; format: functional
[7] = tested on: Sutterella wadsworthensis; experiment: Antibacterial activity against Sutterella wadsworthensis by CLSI M11-A6 agar dilution method; format: functional
[8] = tested on: Clostridium sp.; experiment: Antibacterial activity against Clostridium sp. by CLSI M11-A6 agar dilution method; format: functional
[9] = tested on: Clostridioides difficile; experiment: Antibacterial activity against Clostridium difficile by CLSI M11-A6 agar dilution method; format: functional
[10] = tested on: Prevotella buccae; experiment: Antibacterial activity against Prevotella buccae by CLSI M11-A6 agar dilution method; format: functional; conditions: Segatella buccae
[11] = tested on: Flavonifractor plautii; experiment: Antibacterial activity against Clostridium orbiscindens by CLSI M11-A6 agar dilution method; format: functional
[12] = tested on: Parabacteroides merdae; experiment: Antibacterial activity against Parabacteroides merdae by CLSI M11-A6 agar dilution method; format: functional
[13] = tested on: Peptostreptococcus anaerobius; experiment: Antibacterial activity against Peptostreptococcus anaerobius by CLSI M11-A6 agar dilution method; format: functional
[14] = Antibacterial activity against Bifidobacterium infantis by CLSI M11-A6 agar dilution method; format: functional, Bifidobacterium longum subsp. infantis; conditions: Bifidobacterium longum
[15] = tested on: Prevotella intermedia; experiment: Antibacterial activity against Prevotella intermedia by CLSI M11-A6 agar dilution method; format: functional
[16] = tested on: Eggerthella lenta; experiment: Antibacterial activity against Eggerthella lenta by CLSI M11-A6 agar dilution method; format: functional
[17] = tested on: Ruminococcus obeum; experiment: Antibacterial activity against Ruminococcus obeum by CLSI M11-A6 agar dilution method; format: functional; conditions: Blautia obeum
[18] = tested on: Streptococcus constellatus; experiment: Antibacterial activity against Streptococcus constellatus by CLSI M11-A6 agar dilution method; format: functional
[19] = tested on: Clostridium hathewayi; experiment: Antibacterial activity against Clostridium hathewayi by CLSI M11-A6 agar dilution method; format: functional; conditions: Hungatella hathewayi
[20] = tested on: Clostridium leptum; experiment: Antibacterial activity against Clostridium leptum by CLSI M11-A6 agar dilution method; format: functional
[21] = tested on: Clostridium sporogenes; experiment: Antibacterial activity against Clostridium sporogenes by CLSI M11-A6 agar dilution method; format: functional
[22] = tested on: Ruminococcus flavefaciens; experiment: Antibacterial activity against Ruminococcus flavefaciens by CLSI M11-A6 agar dilution method; format: functional
[23] = tested on: Clostridium perfringens; experiment: Antibacterial activity against Clostridium perfringens by CLSI M11-A6 agar dilution method; format: functional
[24] = tested on: Clostridium butyricum; experiment: Antibacterial activity against Clostridium butyricum by CLSI M11-A6 agar dilution method; format: functional
[25] = tested on: Prevotella melaninogenica; experiment: Antibacterial activity against Prevotella melaninogenica by CLSI M11-A6 agar dilution method; format: functional
[26] = tested on: Blautia producta; experiment: Antibacterial activity against Ruminococcus productus by CLSI M11-A6 agar dilution method; format: functional
[27] = tested on: Catenibacterium mitsuokai; experiment: Antibacterial activity against Catenibacterium mitsuokai by CLSI M11-A6 agar dilution method; format: functional
[28] = tested on: Hoylesella oralis; experiment: Antibacterial activity against Prevotella oralis by CLSI M11-A6 agar dilution method; format: functional
[29] = tested on: Bilophila wadsworthia; experiment: Antibacterial activity against Bilophila wadsworthia by CLSI M11-A6 agar dilution method; format: functional
[30] = tested on: Clostridium spiroforme; experiment: Antibacterial activity against Clostridium spiroforme by CLSI M11-A6 agar dilution method; format: functional; conditions: Thomasclavelia spiroformis
[31] = tested on: Bacteroides ovatus; experiment: Antibacterial activity against Bacteroides ovatus by CLSI M11-A6 agar dilution method; format: functional
[32] = tested on: Prevotella denticola; experiment: Antibacterial activity against Prevotella P denticola by CLSI M11-A6 agar dilution method; format: functional
[33] = tested on: Odoribacter splanchnicus; experiment: Antibacterial activity against Bacteroides splanchnicus by CLSI M11-A6 agar dilution method; format: functional
[34] = tested on: Peptoniphilus asaccharolyticus; experiment: Antibacterial activity against Peptoniphilus asaccharolyticus by CLSI M11-A6 agar dilution method; format: functional
[35] = tested on: Coriobacterium; experiment: Antibacterial activity against […] by CLSI M11-A6 agar dilution method; format: functional
[36] = tested on: Bifidobacterium adolescentis; experiment: Antibacterial activity against Bifidobacterium adolescentis by CLSI M11-A6 agar dilution method; format: functional
[37] = tested on: Fusobacterium varium; experiment: Antibacterial activity against Fusobacterium varium by CLSI M11-A6 agar dilution method; format: functional
[38] = tested on: Finegoldia magna; experiment: Antibacterial activity against Finegoldia magna by CLSI M11-A6 agar dilution method; format: functional
[39] = tested on: Anaerococcus tetradius; experiment: Antibacterial activity against Anaerococcus tetradius by CLSI M11-A6 agar dilution method; format: functional
[40] = tested on: Coprobacillus cateniformis; experiment: Antibacterial activity against Coprobacillus cateniformis by CLSI M11-A6 agar dilution method; format: functional
[41] = tested on: Bifidobacterium longum; experiment: Antibacterial activity against Bifidobacterium longum by CLSI M11-A6 agar dilution method; format: functional
[42] = tested on: Clostridium scindens; experiment: Antibacterial activity against Clostridium scindens by CLSI M11-A6 agar dilution method; format: functional
[43] = tested on: Collinsella aerofaciens; experiment: Antibacterial activity against Colinsella aerofaciens by CLSI M11-A6 agar dilution method; format: functional

Which MIC50 [1] does the source give for CCC[C@@H]1C[C@@H](C(=O)N[C@@H]([C@H]2O[C@H](SC)[C@H](O)[C@@H](O)[C@H]2O)[C@H](C)Cl)N(C)C1 [CLINDAMYCIN] here?
Its MIC50 is no more than 0.12 µg/mL.

What about the MIC90 [1] of the same compound?
The MIC90 was 1 µg/mL (≈ 2.35 µM).

And the MIC50 [2]?
The MIC50 was no more than 0.12 µg/mL.

What about the MIC90 [2] of the same compound?
The MIC90 was 1 µg/mL (≈ 2.35 µM).

And the MIC90 [3]?
The MIC90 was 4 µg/mL (≈ 9.41 µM).

And the MIC50 [4]?
Its MIC50 is 0.5 µg/mL (≈ 1.18 µM).

And the MIC90 [4]?
Its MIC90 is greater than 128 µg/mL.

What about the MIC90 [5] of the same compound?
The MIC90 was 4 µg/mL (≈ 9.41 µM).

And the MIC90 [6]?
Its MIC90 is 0.5 µg/mL (≈ 1.18 µM).

And the MIC50 [7]?
Its MIC50 is 16 µg/mL (≈ 37.6 µM).

What about the MIC90 [7] of the same compound?
Its MIC90 is 128 µg/mL (≈ 301 µM).

What about the MIC90 [8] of the same compound?
Its MIC90 is 4 µg/mL (≈ 9.41 µM).

What about the MIC50 [9] of the same compound?
The MIC50 was 4 µg/mL (≈ 9.41 µM).

What about the MIC90 [9] of the same compound?
The MIC90 was 128 µg/mL (≈ 301 µM).

And the MIC [10]?
Its MIC is no more than 0.12 µg/mL.

And the MIC50 [10]?
Its MIC50 is no more than 0.12 µg/mL.

What about the MIC90 [10] of the same compound?
Its MIC90 is no more than 0.12 µg/mL.

What about the MIC90 [11] of the same compound?
Its MIC90 is 4 µg/mL (≈ 9.41 µM).

And the MIC50 [12]?
Its MIC50 is 2 µg/mL (≈ 4.71 µM).

What about the MIC90 [12] of the same compound?
The MIC90 was 64 µg/mL (≈ 151 µM).

And the MIC90 [13]?
The MIC90 was greater than 128 µg/mL.

And the MIC50 [14]?
Its MIC50 is no more than 0.12 µg/mL.

What about the MIC90 [14] of the same compound?
The MIC90 was 1 µg/mL (≈ 2.35 µM).

And the MIC [15]?
Its MIC is no more than 0.12 µg/mL.

And the MIC50 [15]?
Its MIC50 is no more than 0.12 µg/mL.

What about the MIC90 [15] of the same compound?
The MIC90 was no more than 0.12 µg/mL.

What about the MIC50 [16] of the same compound?
Its MIC50 is no more than 0.12 µg/mL.

What about the MIC90 [16] of the same compound?
Its MIC90 is 1 µg/mL (≈ 2.35 µM).

And the MIC50 [17]?
Its MIC50 is no more than 0.12 µg/mL.

What about the MIC90 [17] of the same compound?
Its MIC90 is no more than 0.12 µg/mL.

What about the MIC90 [18] of the same compound?
The MIC90 was 0.5 µg/mL (≈ 1.18 µM).

What about the MIC50 [19] of the same compound?
Its MIC50 is 0.5 µg/mL (≈ 1.18 µM).

What about the MIC90 [19] of the same compound?
The MIC90 was 2 µg/mL (≈ 4.71 µM).

What about the MIC90 [20] of the same compound?
Its MIC90 is 4 µg/mL (≈ 9.41 µM).

What about the MIC90 [21] of the same compound?
Its MIC90 is 4 µg/mL (≈ 9.41 µM).

What about the MIC50 [22] of the same compound?
The MIC50 was no more than 0.12 µg/mL.

What about the MIC90 [22] of the same compound?
Its MIC90 is 2 µg/mL (≈ 4.71 µM).

What about the MIC50 [23] of the same compound?
Its MIC50 is 0.5 µg/mL (≈ 1.18 µM).

And the MIC90 [23]?
Its MIC90 is 2 µg/mL (≈ 4.71 µM).

And the MIC90 [24]?
Its MIC90 is 4 µg/mL (≈ 9.41 µM).

What about the MIC [25] of the same compound?
The MIC was no more than 0.12 µg/mL.

And the MIC50 [25]?
The MIC50 was no more than 0.12 µg/mL.

And the MIC90 [25]?
The MIC90 was no more than 0.12 µg/mL.

What about the MIC50 [26] of the same compound?
Its MIC50 is no more than 0.12 µg/mL.

And the MIC90 [26]?
Its MIC90 is 2 µg/mL (≈ 4.71 µM).

What about the MIC50 [27] of the same compound?
Its MIC50 is no more than 0.12 µg/mL.

What about the MIC90 [27] of the same compound?
The MIC90 was 1 µg/mL (≈ 2.35 µM).

What about the MIC [28] of the same compound?
Its MIC is no more than 0.12 µg/mL.

And the MIC50 [28]?
The MIC50 was no more than 0.12 µg/mL.

What about the MIC90 [28] of the same compound?
The MIC90 was no more than 0.12 µg/mL.

What about the MIC50 [29] of the same compound?
Its MIC50 is 0.5 µg/mL (≈ 1.18 µM).

And the MIC90 [29]?
Its MIC90 is 1 µg/mL (≈ 2.35 µM).

And the MIC90 [30]?
The MIC90 was 4 µg/mL (≈ 9.41 µM).

And the MIC50 [31]?
Its MIC50 is 2 µg/mL (≈ 4.71 µM).

What about the MIC90 [31] of the same compound?
The MIC90 was greater than 128 µg/mL.

And the MIC [32]?
Its MIC is no more than 0.12 µg/mL.

And the MIC50 [32]?
Its MIC50 is no more than 0.12 µg/mL.

What about the MIC90 [32] of the same compound?
Its MIC90 is no more than 0.12 µg/mL.

What about the MIC50 [33] of the same compound?
Its MIC50 is no more than 0.12 µg/mL.

And the MIC90 [33]?
The MIC90 was greater than 128 µg/mL.

And the MIC90 [34]?
The MIC90 was greater than 128 µg/mL.

And the MIC50 [35]?
Its MIC50 is no more than 0.12 µg/mL.

What about the MIC90 [35] of the same compound?
The MIC90 was 1 µg/mL (≈ 2.35 µM).

And the MIC50 [36]?
Its MIC50 is no more than 0.12 µg/mL.

What about the MIC90 [36] of the same compound?
Its MIC90 is 1 µg/mL (≈ 2.35 µM).

What about the MIC50 [37] of the same compound?
Its MIC50 is 1 µg/mL (≈ 2.35 µM).

What about the MIC90 [37] of the same compound?
The MIC90 was 32 µg/mL (≈ 75.3 µM).

And the MIC90 [38]?
Its MIC90 is greater than 128 µg/mL.

And the MIC90 [39]?
Its MIC90 is greater than 128 µg/mL.

And the MIC50 [40]?
The MIC50 was no more than 0.12 µg/mL.

And the MIC90 [40]?
The MIC90 was 1 µg/mL (≈ 2.35 µM).

And the MIC50 [41]?
The MIC50 was no more than 0.12 µg/mL.

And the MIC90 [41]?
The MIC90 was 1 µg/mL (≈ 2.35 µM).

What about the MIC90 [42] of the same compound?
Its MIC90 is 4 µg/mL (≈ 9.41 µM).

And the MIC50 [43]?
Its MIC50 is no more than 0.12 µg/mL.

And the MIC90 [43]?
Its MIC90 is 1 µg/mL (≈ 2.35 µM).
